From publication PMC3710259, “Experimental detection of proteolytic activity in a signal peptide peptidase of Arabidopsis thaliana” (BMC Biochemistry, 2013)

Experiments:
native human SPP (HsSPP) = target: T1, native human SPP (HsSPP) (Homo sapiens, UniProt Q8TCT9); assay: gel immunoblot cleavage assay of myc-Prl-PP-FLAG with DDM-solubilised membranes; format: biochemical; conditions: 1 μM myc-Prl-PP-FLAG substrate, 0.25% DDM, 37°C; 10 μM inhibitor
T1 construct: gene HM13; endogenous, untagged, in DDM-solubilised membrane fraction of HEK293T cells
T1 sequence (Q8TCT9 1-377): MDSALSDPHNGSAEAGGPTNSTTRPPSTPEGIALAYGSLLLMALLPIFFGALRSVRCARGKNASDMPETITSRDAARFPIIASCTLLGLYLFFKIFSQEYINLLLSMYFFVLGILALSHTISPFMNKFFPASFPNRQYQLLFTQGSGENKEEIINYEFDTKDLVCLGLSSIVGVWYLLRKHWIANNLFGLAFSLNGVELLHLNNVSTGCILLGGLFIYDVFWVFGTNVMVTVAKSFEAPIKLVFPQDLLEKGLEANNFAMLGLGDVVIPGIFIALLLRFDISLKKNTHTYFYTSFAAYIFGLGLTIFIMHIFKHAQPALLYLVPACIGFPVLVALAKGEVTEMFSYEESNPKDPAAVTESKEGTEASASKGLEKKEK

AtSPP-GFP = target: T2, AtSPP-GFP (Arabidopsis thaliana, UniProt O81062); assay: as above; format: biochemical; conditions: 1 μM myc-Prl-PP-FLAG substrate, 0.25% DDM, 37°C, 15 h; 50 μM inhibitor
T2 construct: gene SPP; full length with C-terminal yEGFP-octa-His tag kept, expressed in Saccharomyces cerevisiae BY2777; DDM-solubilised yeast membranes; estimated 65 kDa
T2 sequence (O81062 1-344): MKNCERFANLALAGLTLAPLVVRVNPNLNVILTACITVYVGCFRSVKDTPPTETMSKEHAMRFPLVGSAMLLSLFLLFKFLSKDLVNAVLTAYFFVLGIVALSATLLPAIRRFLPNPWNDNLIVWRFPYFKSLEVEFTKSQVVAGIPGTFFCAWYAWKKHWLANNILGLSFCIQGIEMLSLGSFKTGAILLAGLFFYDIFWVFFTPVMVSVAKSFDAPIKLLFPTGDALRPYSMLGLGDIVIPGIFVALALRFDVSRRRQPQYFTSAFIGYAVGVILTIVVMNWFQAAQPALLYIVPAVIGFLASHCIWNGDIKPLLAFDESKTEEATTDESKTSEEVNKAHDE

SMILES: CC(C)C[C@H](NC(=O)OCc1ccccc1)C(=O)N[C@@H](CC(C)C)C(=O)NCC(=O)CNC(=O)[C@H](CC(C)C)NC(=O)[C@H](CC(C)C)NC(=O)OCc1ccccc1 [(Z-LL)2-ketone, 1,3-di-(N-carboxybenzoyl-L-leucyl-L-leucyl) amino acetone]
- inhibition at 10 μM (native human SPP (HsSPP)): the SPP was inhibited by the (Z-LL)2-ketone
- inhibition at 50 μM (AtSPP-GFP): rate of proteolytic activity of AtSPP-GFP was weak, the activity was inhibited by the (Z-LL)2-ketone
